Results as given in patent US20260256753A1, “USE OF AN OREXIN 2 RECEPTOR AGONIST FOR IMPROVING RESPIRATORY FUNCTION DURING SLEEP” (TAKEDA PHARMACEUTICAL COMPANY LIMITED, priority 2023, published 2026).

Columns and labels:
OX2R [1] = molecular target: T1, OX2R (Homo sapiens, UniProt O43614); conditions: OX2R-expressed recombinant cells; cited from earlier work
T1 sequence (O43614 1-444): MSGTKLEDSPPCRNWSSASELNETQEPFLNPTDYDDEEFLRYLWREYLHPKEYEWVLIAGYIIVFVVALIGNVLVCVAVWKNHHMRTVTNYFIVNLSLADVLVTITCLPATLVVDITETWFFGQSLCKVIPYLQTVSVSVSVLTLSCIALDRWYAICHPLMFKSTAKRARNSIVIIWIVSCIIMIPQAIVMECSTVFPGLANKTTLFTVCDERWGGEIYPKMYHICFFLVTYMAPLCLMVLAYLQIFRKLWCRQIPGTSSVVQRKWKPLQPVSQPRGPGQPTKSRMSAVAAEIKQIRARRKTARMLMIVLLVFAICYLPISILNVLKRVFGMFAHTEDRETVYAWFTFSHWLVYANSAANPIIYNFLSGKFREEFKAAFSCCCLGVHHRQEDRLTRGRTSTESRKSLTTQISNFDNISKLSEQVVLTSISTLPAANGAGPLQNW

OX2R [2] = molecular target: T1, OX2R; conditions: OX2R-expressed recombinant cells; cited from earlier work; remark: listed apart in the source
hypoglossal motoneurons = experiment: Electrophysiologic recording of hypoglossal motoneurons in rat medullary slices; assay type: cell-based; conditions: whole cell patch clamp, versus vehicle control, FIG. 3
From the text: (§1) Neonatal rats (postnatal day 1-10) were decapitated and the neuraxis was isolated in a chamber filled with oxygenated artificial cerebrospinal fluid solution (ACSF, in mM: NaCl 125, KCl 2.5, MgCl2 1, CaCl2 2, NaHCO3 25, NaH2PO4 1.25, glucose 25, pH 7.4). The cerebellum was removed, and the brainstem was mounted in the vibratome (VT 1000S; Leica, Milan, Italy) chamber filled with oxygenated gluconate cutting solution (in mM: Kgluconate 130, KCl 15, EGTA 0.2, HEPES 20, glucose 25, kynurenic acid 2, pH 7.4). Transverse medullary slices containing the pre-Bötzinger complex and hypoglossal nucleus were cut (400-600 μm thick). The slices were transferred at room temperature for 1 min in an oxygenated mannitol cutting solution (in mM: D-mannitol 225, glucose 25, KCl 2.5, NaH2PO4 1.25, NaHCO3 26, CaCl2 0.8, MgCl2 8, kynurenic acid 2, pH 7.4). Slices were then transferred in ACSF solution at 30° C. for 30 min and at room temperature for 30 min. At least 30 min prior to the start of recording, each slice was transferred in the recording solution in which the concentration of K+ was raised to 9 mM and that of Mg2+ was decreased to 0.5 mM to ensure the production of long-term and stable rhythm. […] Signals were acquired using Clampex 10.6 software (Axon, Molecular Devices, CA, USA) at a sampling rate of 10-20 kHz and filtered at 2-10 kHz using an 8-pole Bessel filter built within the software and analyzed using Clampfit 10.6 software (pClamp 10.6; Axon, Molecular Devices). […] Bursts were then automatically detected, and burst frequency was measured.
(§2) To evaluate the effects of vehicle (0.1% DMSO) on neuronal activities, after 5 min of stabilization, the neuronal activities under basal condition was recorded for 2-12 min, followed by recording in the presence of vehicle (0.1% DMSO) for 30 min. […]

phrenic motoneurons = experiment: Electrophysiologic recording of phrenic motoneurons in rat isolated brainstem-spinal cord preparations; assay type: cell-based; conditions: C3-5 ventral root, versus vehicle control, FIG. 2
Description: Neonatal (postnatal day 1-4) rats were decapitated, and the brainstem-spinal cord was dissected in a bath containing ACSF. The cerebellum and pons were ablated. At least 30 min prior to the start of recording, the tissue was transferred in the recording solution in which the concentration of K+ was raised to 5 mM and that of Mg2+ was decreased to 0.5 mM to ensure production of long-term and stable rhythm (modified ACSF, in mM: NaCl 125, MgCl2 0.5, KCl 5, CaCl2 1, NaHCO3 25, NaH2PO4 1.25, glucose 30, pH 7.4). The tissues were glued on coverslips and transferred to a recording chamber and continuously perfused at 27±2° C. with mACSF at a flow rate of 2.3±0.2 mL/min. Activity of phrenic motoneurons was measured in electrophysiological recordings from C3-5 ventral root, outputs of phrenic motoneurons (J. J. Greer, J. C. Smith, J. L. Feldman, Respiratory and locomotor patterns generated in the fetal rat brain stem-spinal cord in vitro, J Neurophysiol 67 (4) (1992) 996-9; J. C. Smith, J. J. Greer, G. S. Liu, J. L. Feldman, Neural mechanisms generating respiratory pattern in mammalian brain stem-spinal cord in vitro. I. Spatiotemporal patterns of motor and medullary neuron activity, J Neurophysiol 64 (4) (1990) 1149-69), using a glass suction electrode. […] The rectification and integration was used for quantification of the activities of phrenic motoneurons because the spontaneous bursts detected in voltage signals are consisting of multiple positive and negative voltages from baseline (T. Sugita, et al.). […] Bursts were then automatically detected, and burst frequency was measured.
To evaluate the effects of vehicle (0.1% DMSO) on neuronal activities, after 5 min of stabilization, the neuronal activities under basal condition were recorded for 2-20 min, followed by recording with vehicle (0.1% DMSO) for 30-40 min. […] As vehicle (0.1% DMSO) had no significant effects on burst frequency of phrenic neurons, potential of drugs was assessed under vehicle (0.1% DMSO). […]

[3] = test system: neurons in the pre-Bötzinger complex; experiment: Electrophysiologic recording of neurons in the pre-Bötzinger complex in rat medullary slices; assay type: cell-based; conditions: whole cell patch clamp, versus vehicle (0.1% DMSO) control, FIG. 1
From the text: as §1, §2

Row | Compound | recruitment of β-arrestins (OX2R [1]) | calcium mobilization (OX2R [2]) | burst frequency of hypoglossal motoneurons (hypoglossal motoneurons) | burst frequency of phrenic motoneurons (phrenic motoneurons) | burst frequency in neurons in the pre-Bötzinger complex [3]
1 | Orexin-B: Orexin-B (OX-B) peptide | promote recruitment of β-arrestins | increase calcium mobilization |  |  | 
2 | COc1ccc(-c2cccc(C(=O)N(C)C)c2)cc1S(=O)(=O)Nc1cccc(NCCNC(=O)c2ccccc2N(C)C)c1 [YNT-185] | promote recruitment of β-arrestins | increase calcium mobilization |  |  | 
3 | CC(C)(O)C(=O)N1CC[C@H](NS(C)(=O)=O)[C@@H]1Cc1cccc(-c2cc(F)cc(F)c2)c1F [Compound B, N-((2S,3S)-1-(2-hydroxy-2-methylpropanoyl)-2-((2,3′,5′-trifluorobiphenyl-3-yl)methyl)pyrrolidin-3-yl) methanesulfonamide] |  |  | increased burst frequency | increased burst frequency | increased burst frequency
